Experiment [1] deals with sorbitol contained in the sciatic nerves (aldose reductase). Kind of experiment: Determination of Aldose Reductase Activity (In Vivo): sorbitol in sciatic nerves of STZ diabetic rats. Further details: species or system Wistar male rats. The note with it: Rattus norvegicus, po, 336 h, Table 3, sciatic nerve sorbitol, read-out: Repression rate %; for inhibition in vivo at 30 mg/kg: 30 mg/kg orally for 2 weeks; for inhibition in vivo at 50 mg/kg: 50 mg/Kg orally. As to the method: Streptozotocin (STZ) dissolved in 10 mM citrate buffer (pH 4.5) was administered intravenously to 6 week-old Wistar male rats […] in an amount of 65 mg/kg. 48 hours thereafter, blood was collected from the carotid […] of the rats. Rats with a blood glucose level of 200 mg/dl or more were classified as those with diabetes. Rats with a persistent high level of blood sugar were employed in the experiment. The blood glucose level was determined by the glucose oxidase method. 2 weeks after administration of STZ, a compound obtained in the following examples was suspended in purified water or 0.5% carboxy sodium cellulose solution. This solution was orally administered into a rat in an amount of 30 mg/kg for 2 weeks. 2 weeks after the adminstration, sciatic nerves were removed from the rat under ether anesthesia. The sciatic nerves were weighed and stored at -20° C. The amount of sorbitol contained in the sciatic nerves was determined as follows. That is, the sciatic nerves were subjected to extraction with 1 ml of purified water containing 10 gg/ml arabinitol at 100° C. for 20 min., followed by addition of 0.2 ml each of 0.2M barium hydroxide and 0.19M zinc sulfate. […] The resulting sample was […] then analyzed by gas chromatography. Sorbitol is an intermediate which occurs during convertion of glucose to fructose by aldose reductase, and this intermediate is accumulated together with fructose in the crystalline lenses and sciatic nerves, particularly under a high level of blood glucose. Therefore, the smaller amount of sorbitol formed indicates higher inhibition of aldose reductase.

Another experiment concerns the target T1, aldose reductase (Rattus norvegicus, UniProt P07943).
T1 construct: The crystalline lenses were homogenized in 135 mM sodium-potassium-phosphate buffer (pH 7.0) and centrifuged; from tissue; host or cells: lens of 6 week-old Wistar rats (30,000 rpm supernatant of homogenate)
Description: Determination of Aldose Reductase Activity (In Vitro). The note with it: for inhibition at 10 µM: at the concentration of 10 μM, read-out: Inhibition rate %. Type of experiment: biochemical, rat (Wistar). How it is done:
6 week-old Wistar rats were sacrificed under ether anesthesia, and immediately lenses were removed and stored at -20° C. The crystalline lenses were homogenized in 135 mM sodium-potassium-phosphate buffer (pH 7.0) and centrifuged for 30 min. at 30,000 rpm. The supernatant was used as an aldose-reductase solution. The above procedure was carried out at 4° C. The enzyme solution was stored at -20° C.
The measurement of aldose reductase activity was conducted according to the method as described by Duffane et al. (Biochemical Medicine, 32:99-105 (1984)).
That is, 100 gl of the above enzyme solution and 100 gl of a solution prepared by dissolving a compound obtained in the following example to a final concentration of from 1.0×10^-5 to 4.0×10^-7 M in dimethylsulfoxide (DMSO) were added to 800 gl of 135 mM sodium-potassium-phosphate buffer (pH 7.0) containing 100 mM lithium sulfate, 0.03 mM NADPH (reduced form of nicotinamide adeninc dinucleotide phosphate) and 20 mM glucose as a substrate. The sample was allowed to react for 30 min. at 30° C. The reaction was stopped by addition of 0.3 ml of 0.5N hydrochloric acid. The NADP (oxided form of nicotinamide adenine dinucleotide) formed during the above reaction was converted into a fluorescent substance by addition of 1 ml of 6N sodium hydroxide containing 10 mM imidazole. 30 min. thereafter, the sample was measured for fluorescence intensity at the fluorescence wavelength of 460 nm (excitation wavelength: 360 nm) using a fluorescence photometer F-4000 (manufactured by Hitachi, Ltd.) at room temperature. A sample containing DMSO in place of the present compound was used as a control, and its fluorescence intensity was determined in the same manner as above.
Aldose reductase is an enzyme to convert DL-glyceraldehyde or glucose into polyol in the presence of NADPH as a coenzyme. As this reaction proceeds, NADPH is converted into NADP, so that the smaller amount of NADP formed indicates higher inhibition of aldose reductase. […]

In the next experiment the target is T2, aldehyde reductase (Rattus norvegicus, UniProt P51635).
T2 construct: The supernatant thus obtained was subjected to 30-60% ammonium sulfate fractionation; from tissue; host or cells: rat kidney (30-60% ammonium sulfate fraction of homogenate supernatant, dialyzed)
T2 sequence (P51635 1-325): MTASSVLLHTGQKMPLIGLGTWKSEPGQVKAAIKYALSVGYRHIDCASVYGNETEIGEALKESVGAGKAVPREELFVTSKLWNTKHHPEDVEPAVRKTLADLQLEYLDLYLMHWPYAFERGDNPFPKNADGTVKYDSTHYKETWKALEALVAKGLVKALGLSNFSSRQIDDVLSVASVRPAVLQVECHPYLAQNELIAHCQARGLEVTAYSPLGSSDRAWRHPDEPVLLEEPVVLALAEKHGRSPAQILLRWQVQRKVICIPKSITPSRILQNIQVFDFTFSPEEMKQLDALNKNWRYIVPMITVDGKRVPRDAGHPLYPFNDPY
Description: Ability of Selective Inhibition of Aldose Reductase (aldehyde reductase activity). The conditions noted are these: for IC50: Table 4, rat kidney aldehyde reductase, 50 mM DL-glyceraldehyde, pH 7.0, read-out: 50% Inhibition conc [IC50 (M)] Aldehyde reductase. Format: biochemical. How it is done:
From rats under ether anesthesia, the kidneys were removed and stored at -20 ° C. The kidneys were homogenized in 0.1M phosphate buffer (pH 7.2) containing 5 mM 2-mercaptoethanol (kidneys: buffer =1:10 (by volume)), followed by centrifugation (14,000 rpm, 20 min., 4° C.), whereby a supernatant was obtained. The supernatant thus obtained was subjected to 30-60% ammonium sulfate fractionation. The resulting precipitates were collected by centrifugation (9,200 rpm, 20 min., 4° C.) The precipitates were suspended in a buffer with the same composition as described above. This suspension was dialyzed overnight at 4° C. against a buffer with the same composition, so that a crude aldehyde reductase solution was obtained. The activity of aldehyde reductase was determined in the same manner as for aldose reductase except for use of 0.1M phosphate buffer (pH 7.0) and as substrate 50 mM DL-glyceraldehyde.
The ability of selective inhibition of aldose reductase was determined by dividing the thus obtained 50% inhibition concentration [IC50 (M)] of aldehyde reductase by the above 50% inhibition concentration [IC50 (M)]of aldose reductase.

Setting [2] is: Table 3, rat lens aldose reductase, 20 mM glucose, 30 min, 30° C, pH 7.0, read-out: 50% Inhibition Conc. [IC50 (M)].
[3] abbreviates: Table 4, aldose reductase, read-out: 50% Inhibition conc [IC50 (M)] Aldose reductase.

Where a name gives a salt, the structure may show the parent alone. Read-outs that look alike come from different tables or passages of the source. Some results are limits rather than exact numbers.

With `COc1c(O)cc2oc(Oc3ccc(O)cc3)cc(=O)c2c1O` [Capillarisin, reference compound], in experiment [1] (100 mg/kg orally), the inhibition in vivo at 100 mg/kg is 18.9%. The inhibition at 10 µM on aldose reductase (Table 3) amounted to 81%. Further, the IC50 at aldose reductase (setting [2]) is 1.6e-06 M.
With `CCC(CC)Oc1cc2oc(Sc3ccc(OC(=O)CN)cc3)cc(=O)c2c(OC)c1OC` [Compound 1 obtained in Example 37, 7-(1-ethylpropoxy)-5,6-dimethoxy-2-(4-glycyloxyphenylthio)chromone hydrochloride], in experiment [1], the inhibition in vivo at 30 mg/kg was determined as 51.6%.
On the same count and under the same terms, in the case of `CCC(CC)Oc1cc2oc(Sc3ccc(OC(=O)c4ccc(CN5CCN(C)CC5)cc4)cc3)cc(=O)c2c(OC)c1OC` [Compound 2 obtained in Example 39, 5,6-dimethoxy-7-(1-ethylpropoxy)-2-{4-[4-(4-methylpiperazinomethyl)benzoyloxy]phenylthio}chromone dihydrochloride] it was 4.6%.
As to `COc1c(O)cc2oc(Sc3ccc(O)cc3)cc(=O)c2c1O` [Compound (Formula B), reference compound], at aldehyde reductase (IC50 of aldehyde reductase divided by IC50 of aldose reductase), the “Ability of selective inhibition” value turned out to be 55.5. The IC50 at aldehyde reductase amounted to 1e-05 M; on aldose reductase (setting [3]), 1.8e-07 M. Moreover, the inhibition at 10 µM at aldose reductase (Table 3) was 94.5%.
On to `COc1cc2oc(Sc3ccc(O)cc3)cc(=O)c2c(OC)c1OC` [Example 1, 2-(4-hydroxyphenylthio)-5,6,7-trimethoxychromone], for which the IC50 on aldehyde reductase is over 0.0001 M; at aldose reductase (setting [2]), 1.1e-07 M. Also, at aldose reductase (Table 3), the inhibition at 10 µM is 97.3%.
`CCC(C)Oc1cc2oc(Sc3ccc(O)cc3)cc(=O)c2c(OC(C)C)c1OC` (stereo not drawn) [Example 16, 7-s-butoxy-2-(4-hydroxyphenylthio)-5-isopropoxy-6-methoxychromone]: the IC50 is over 0.0001 M on aldehyde reductase and 3.8e-08 M on aldose reductase (setting [2]). For the same compound, the inhibition at 10 µM on aldose reductase (Table 3) worked out at 96.5%.
Regarding `CCOc1c(OC)c(OC(C)C)cc2oc(Sc3ccc(O)cc3)cc(=O)c12` [Example 18, 5-ethoxy-2-(4-hydroxyphenylthio)-7-isopropoxy-6-methoxychromone], the concentration for half-maximal inhibition (IC50) at aldehyde reductase was over 0.0001 M; on aldose reductase (setting [3]), 1.8e-08 M. For the same compound, in experiment [1], the inhibition in vivo at 50 mg/kg is 5.9%. In addition, the inhibition at 10 µM on aldose reductase (Table 3) is 98.7%.
In the case of `COc1c(OC(C)C)cc2oc(Sc3ccc(O)cc3)cc(=O)c2c1OC` [Example 22, 5,6-dimethoxy-2-(4-hydroxyphenylthio)-7-isopropoxychromone], the IC50 at aldehyde reductase was over 0.0001 M; at aldose reductase (setting [2]) it was 3e-08 M. Moreover, the inhibition in vivo at 50 mg/kg in experiment [1] came to 6.8%. For the same compound, the inhibition at 10 µM on aldose reductase (Table 3) is 98.3%.
Consider `CCC(C)Oc1cc2oc(Sc3ccc(O)cc3)cc(=O)c2c(OC)c1OC` (stereo not drawn) [Example 23, 7-s-butoxy-5,6-dimethoxy-2-(4-hydroxyphenylthio)chromone], for which the IC50 is over 0.0001 M at aldehyde reductase and 4.4e-08 M at aldose reductase (setting [2]). Moreover, the inhibition at 10 µM at aldose reductase (Table 3) was 100%.
Turning to `CCC(CC)Oc1cc2oc(Sc3ccc(O)cc3)cc(=O)c2c(OC)c1OC` [Example 25, 5,6-dimethoxy-7-(1-ethylpropoxy)-2-(4-hydroxyphenylthio)chromone], the 50% inhibitory concentration (IC50) on aldehyde reductase was over 0.0001 M; at aldose reductase (setting [2]) it was 6e-08 M. Moreover, the inhibition in vivo at 50 mg/kg in experiment [1] amounted to 16%. In addition, the inhibition at 10 µM at aldose reductase (Table 3) came to 93.2%.
As to `CCC(CC)Oc1cc2oc(Sc3ccc(O)cc3)cc(=O)c2c(O)c1OC` [Example 33, 7-(1-ethylpropoxy)-5-hydroxy-2-(4-hydroxyphenylthio)-6-methoxychromone], the figures for the IC50 on aldehyde reductase and on aldose reductase (setting [2]) were 0.0001 M and 1.1e-07 M, respectively. Also, at aldose reductase (Table 3), the inhibition at 10 µM is 96.7%.
With `COc1c(OC(C)C)cc2oc(Sc3ccc(OC(=O)CN)cc3)cc(=O)c2c1OC` [Example 35, 5,6-dimethoxy-2-(4-glycyloxyphenylthio)-7-isopropoxychromone hydrochloride], the inhibition in vivo at 30 mg/kg in experiment [1] is 43.7%.
On to `CCOc1c(OC)c(OC(C)C)cc2oc(Sc3ccc(OC(=O)CN)cc3)cc(=O)c12` [Example 36, 5-ethoxy-2-(4-glycyloxyphenylthio)-7-isopropoxy-6-methoxychromone hydrochloride], for which, in experiment [1], the inhibition in vivo at 30 mg/kg is 12.3%.
`CCC(CC)Oc1cc2oc(Sc3ccc(OC(=O)c4ccc(CN5CCN(C)CC5)cc4)cc3)cc(=O)c2c(O)c1OC` [Example 40, 7-(1-ethylpropoxy)-5-hydroxy-2-{4-[4-(4-methylpiperazinomethyl)benzoyloxy]phenylthio}-6-methoxychromone dihydrochloride]: the inhibition in vivo at 30 mg/kg in experiment [1] turned out to be 27.9%.

(Values after patent US5455267A, “Chromone derivative, and aldose reductase inhibitor comprising said compound as active component” (Tsumura & Co., priority 1990, dated 1995).)
